Data on 4 compounds can be found in PMC4404333, “Identification of Selective Inhibitors of the Plasmodium falciparum Hexose Transporter PfHT by Screening Focused Libraries of Anti-Malarial Compounds” (PLoS ONE, 2015).

One series addresses T1, human GLUT1 (Homo sapiens, UniProt P11166).
T1 sequence (P11166 1-492): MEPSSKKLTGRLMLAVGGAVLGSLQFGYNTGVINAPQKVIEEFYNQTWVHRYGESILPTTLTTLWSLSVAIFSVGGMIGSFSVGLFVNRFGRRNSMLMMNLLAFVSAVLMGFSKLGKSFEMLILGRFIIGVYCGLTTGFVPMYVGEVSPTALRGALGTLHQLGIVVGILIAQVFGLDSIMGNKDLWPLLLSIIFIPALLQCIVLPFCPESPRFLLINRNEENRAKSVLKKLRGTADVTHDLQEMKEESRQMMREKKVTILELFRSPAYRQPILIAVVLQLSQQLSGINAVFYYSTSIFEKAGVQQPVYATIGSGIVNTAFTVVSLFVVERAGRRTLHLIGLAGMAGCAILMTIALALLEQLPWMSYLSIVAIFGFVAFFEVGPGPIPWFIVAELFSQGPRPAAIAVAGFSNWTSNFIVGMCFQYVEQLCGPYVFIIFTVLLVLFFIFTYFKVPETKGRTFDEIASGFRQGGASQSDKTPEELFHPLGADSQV
As to the kind of experiment: Uptake of [3H] D-glucose by L. mexicana Δlmxgt1-3 null mutants expressing GLUT1. Type of series: cell-based. The arrangement: expressed in transfected cells; host or cells: Leishmania mexicana promastigotes, Δlmxgt1-3 hexose transporter null mutant. Conditions: inhibition of uptake of 100 μM [3H] D-glucose, 1 min uptake assay. The protocol: (§1) Glucose uptake assays employed logarithmic phase L. mexicana promastigotes of the Δlmxgt1-3 hexose transporter null mutant strain expressing either PfHT or GLUT1 from an episomal expression vector [17]. Parasites (1x10^7) were resuspended in 100 μL phosphate buffered saline, pH 7.4. Prior to uptake, parasites were pre-incubated for 5 min with inhibitor, and uptake was initiated by adding 100 μL of 200 μM [^3H] D-glucose diluted to 4.0 μCi/mL. Uptake was terminated, typically after 1 min, by centrifuging the parasites through a layer of dibutyl phthalate, as described. Control uptake assays employing [^3H] hypoxanthine, [^3H] uridine, and [^3H] L-proline were performed similarly. Analysis of kinetic data was performed using Graph Pad Prism 4.0b software (Graph Pad).

The next series can be described thus: Solubility assay. It is filed as physicochemical. Conditions: PBS buffer, aqueous buffer, kinetic from dmso stock, PBS pH 7.4, room temperature. The protocol: Next, 5 μL of this reference stock plate was mixed with 70 μL of 1-propanol and 75 μL of PBS (pH 7.4) to make the reference plate, and the UV spectrum (250–500 nm) of the reference plate was read. Then, 6 μL of 10 mM test compound stock was added to 600 μL of PBS, pH 7.4, in a 96-well storage plate and mixed. The storage plate was sealed and incubated at room temperature for 18 h. The suspension was then filtered through a 96-well filter plate (pION Inc.). Next, 75 μL of filtrate was mixed with 75 μL of 1-propanol to make the sample plate, and the UV spectrum of the sample plate was read. Calculations were done using μSOL Evolution software based on the area under the curve (AUC) of the UV spectrum of the sample plate and the reference plate. All compounds were tested in triplicate.

Series [1] is described as follows: Liver microsomes stability assay. It is filed as in vitro ADME, mouse. The conditions noted are these: both sexes, CD-1, pH 7.4; for CLint scaled at 9.8 μM: intrinsic clearance calculated from in vitro t1/2, mouse liver microsomes; for half-life at 9.8 μM: mouse liver microsomes, read-out: Mouse Metabolic Stability t1/2 (converted). The protocol:
The microsomal stability assay was carried out as described. […] Each test compound (2.2 μL of 10 mM DMSO solution) was added directly to 1.79 mL of mouse liver microsomal solution and 90 μL was transferred to wells in 96-well plates (0, 0.25, 0.5, 1, 2, and 4 h time points each in triplicate). The NADPH regenerating agent was prepared by mixing 0.113 mL of NADPH regenerating agent solutions A, 0.023 mL of solution B and 0.315 mL of 0.1 M potassium phosphate buffer (pH 7.4) for each tested compound. To each well of the 96-well plate, 22.5 μL of the NADPH regenerating agent was added to initiate the reaction, and the plate was incubated at 37°C for each time point (0, 0.25, 0.5, 1, 2, and 4 h time points each in triplicate). The reaction was quenched by adding 225 μL of cold acetonitrile containing warfarin (4 μg/mL) as internal control to each well. All of the plates were centrifuged at 3220 g for 20 min and the supernatants (100 μL) were transferred to another 96-well plate for analysis on UPLC—MS (Waters Acquity UPLC linked to Waters Acquity Photodiode Array Detector and Waters Acquity Single Quadrupole Mass Detector) on an Acquity UPLC BEH C18 1.7 μm (2.1x50 mm) column by running 90–5% gradient for water (0.1% formic acid) and acetonitrile (0.1% formic acid) in 2 minutes. The area under the single ion recording (SIR) channel for the test compound divided by the area under the SIR for internal control at 0 time concentration was considered as 100% to calculate remaining concentration at each time point. The terminal phase rate constant (ke) was estimated by linear regression of logarithmic transformed concentration versus time, where ke = slope x(-ln10). The half-life t1/2 was calculated as ln2/ke.

A short description of series [2]: Parallel artificial membrane permeability assay (PAMPA). Conditions: for Permeation: pH 7.4; for Retention: retention in artificial membrane. As to the method:
A parallel artificial membrane permeability assay (PAMPA) was conducted on a Biomek FX lab automation workstation (Beckman Coulter, Inc.) with PAMPA evolution 96 command software (pION Inc.) as follows: 3 μL of 10 mM test compound stock was mixed with 600 μL of PBS (pH 7.4) to make diluted test compound. Then 150 μL of diluted test compound was transferred to a UV plate (pION Inc.), and the UV spectrum was read as the reference plate. The membrane on a preloaded PAMPA sandwich (pION Inc.) was painted with 4 μL of GIT lipid (pION Inc.). The acceptor chamber was then filled with 200 μL of acceptor solution buffer (pION Inc.), and the donor chamber was filled with 180 μL of diluted test compound. The PAMPA sandwich was assembled, placed on the Gut-Box controlled environment chamber and stirred for 30 min. The aqueous boundary layer was set to 40 μm for stirring. The UV spectrum (250–500 nm) of the donor and the acceptor were read. The permeability coefficient was calculated using PAMPA Evolution 96 Command software (pION Inc.) based on the AUC of the reference plate, the donor plate, and the acceptor plate. All compounds were tested in triplicate.

Another series addresses PfHT (Plasmodium falciparum, UniProt Q7KWJ5). Nature of the series: Uptake of [3H] D-glucose by L. mexicana Δlmxgt1-3 null mutants expressing PfHT. It is filed as cell-based. Details: expressed in transfected cells; host or cells: Leishmania mexicana promastigotes, Δlmxgt1-3 hexose transporter null mutant. Conditions: for Ki: linear regression; for Vmax: glucose uptake by PfHT; for mode of inhibition of glucose uptake through PfHT: substrate saturation curves, one-way ANOVA of Vmax and Km; for SIglucose GLUT1/PfHT (Specificity Index, IC50 for GLUT1/IC50 for PfHT): uptake of 100 μM [3H] D-glucose. The protocol: as §1

[3] abbreviates: Kic (Ki for binding of inhibitor to free transporter), from plot of Km/Vmax versus [I].
Where [4] appears, read: Kiu (Ki for binding of inhibitor to substrate-bound transporter), from plot of 1/Vmax versus [I].

Converted amounts (≈) assume the structure as drawn. “And” between values parts separate entries of the source, which are not always exact repeats. Identical values can stand only once. Like-named read-outs stand apart in the source and are kept apart here.

PfHT, sequence (Q7KWJ5 whole entry): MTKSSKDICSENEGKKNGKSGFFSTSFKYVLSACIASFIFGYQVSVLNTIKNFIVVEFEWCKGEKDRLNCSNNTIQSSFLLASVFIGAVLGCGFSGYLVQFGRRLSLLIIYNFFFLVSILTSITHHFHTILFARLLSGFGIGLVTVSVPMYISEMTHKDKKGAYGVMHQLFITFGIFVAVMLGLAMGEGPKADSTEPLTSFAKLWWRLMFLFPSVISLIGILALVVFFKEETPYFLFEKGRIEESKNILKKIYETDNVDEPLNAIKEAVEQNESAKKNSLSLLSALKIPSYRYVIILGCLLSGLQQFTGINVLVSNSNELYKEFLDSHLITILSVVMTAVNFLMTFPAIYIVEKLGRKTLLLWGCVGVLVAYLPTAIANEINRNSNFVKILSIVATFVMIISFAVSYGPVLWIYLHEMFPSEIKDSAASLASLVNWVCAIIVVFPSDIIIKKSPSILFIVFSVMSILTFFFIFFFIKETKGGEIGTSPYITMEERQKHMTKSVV

As for `COc1cc(Nc2ccc3cc(S(=O)(=O)N4CCCCC4C)ccc3n2)cc(OC)c1OC` (stereo not shown) [Compound 1], the half-maximal inhibitory concentration (IC50) (usually the concentration needed to halve the response being measured) against human GLUT1 was 3200 nM and > 3000 nM. In addition, in “Solubility assay”, the solubility – broadly, the dissolved amount per volume that the medium holds – at 18 h was found to be 0.5 ± 0.4 µM (≈ 0.236 µg/mL). Besides, in series [1], the CLint scaled (commonly a measure of how fast metabolising enzymes remove a compound, apart from limits set by blood flow) at 9.8 μM was 213 mL/min/kg and the half-life at 9.8 μM is 16.2 min. Further, in series [2], the Permeation was 1057 ± 69 10^-6 cm/s and the Retention is 70 ± 2.0%. Moreover, on PfHT, the IC50 turned out to be 39 nM; the “selective inhibition of PfHT versus GLUT1” value is 82 fold; the “mode of inhibition of glucose uptake through PfHT” value is “non-competitive inhibitors”; the “SIglucose GLUT1/PfHT (Specificity Index, IC50 for GLUT1/IC50 for PfHT)” value came out at 82. For the same compound, the Ki – broadly, a measure of affinity in units of concentration, obtained from inhibition or displacement – at PfHT (setting [3]) was determined as 33 nM. The compound also returned a Ki at PfHT (setting [4]) of 23 nM. In addition, the Vmax on PfHT ([I] 50 nM) is listed as 280 ± 15 pmol per 10^7 cells per min. The Vmax at PfHT ([I] 100 nM) was 131 ± 4 pmol per 10^7 cells per min.
`CC1CCCCN1S(=O)(=O)c1ccc2nc(Nc3ccccc3)ccc2c1` (stereo not shown) [Compound 10]: at human GLUT1, the IC50 was > 10000 nM. This compound also came in with a solubility at 18 h in “Solubility assay” of 0.4 µM (≈ 0.153 µg/mL). Besides, in series [1], the CLint scaled at 9.8 μM was 438 mL/min/kg and the half-life at 9.8 μM is 7.8 min. In addition, in series [2], the Permeation is given as 534 ± 25 10^-6 cm/s and the Retention is listed as 80 ± 12%. Further, on PfHT (read-out: IC50 PfHT, inhibition of uptake of 100 μM [3H] D-glucose, 1 min uptake assay), the IC50 is > 10000 nM.
Take `CC1CCCCN1S(=O)(=O)c1ccc2nc(Nc3ccc(C#N)cc3)ccc2c1` (stereo not shown) [Compound 12]: on human GLUT1, the half-maximal inhibitory concentration (IC50) came to 2500 nM. Moreover, in series [1], the CLint scaled at 9.8 μM is 178 mL/min/kg and the half-life at 9.8 μM is 19.2 min. In series [2], this compound yielded a Permeation of 570 ND 10^-6 cm/s and a Retention of 93 ± 3.8%. Moreover, on PfHT, the midpoint of inhibition, the IC50, lay at 2700 nM and the “SIglucose GLUT1/PfHT (Specificity Index, IC50 for GLUT1/IC50 for PfHT)” value was found to be 0.92.
In the case of `CC1CCCCN1S(=O)(=O)c1ccc2nc(Nc3cccc(C#N)c3)ccc2c1` (stereo not shown) [Compound 13], the half-inhibitory concentration (IC50) against human GLUT1 was determined as 30000 nM. For the same compound, the concentration in solution in “Solubility assay” (solubility at 18 h) was 0.9 ± 1.2 µM (≈ 0.366 µg/mL). Further, in series [1], the CLint scaled at 9.8 μM is 680 mL/min/kg and the half-life at 9.8 μM is 4.8 min. Further, in series [2], the Permeation is 582 ± 205 10^-6 cm/s and the Retention is reported as 93 ± 0.5%. Besides, at PfHT, the IC50 turned out to be 320 nM, the “lower affinity for PfHT than Compound 1” value was 8 fold, the “selective inhibition of PfHT versus GLUT1” value was determined as 94 fold and the “mode of inhibition of glucose uptake through PfHT” value is given as “non-competitive inhibitors”. Further, the “SIglucose GLUT1/PfHT (Specificity Index, IC50 for GLUT1/IC50 for PfHT)” value at PfHT stood at 94. Besides, the Ki at PfHT (setting [3]) was determined as 330 nM. Further, the Ki at PfHT (setting [4]) is 260 nM. Further, at PfHT ([I] 600 nM), the Vmax is 245 ± 67 pmol per 10^7 cells per min. Moreover, at PfHT ([I] 1000 nM), the Vmax is recorded as 93 ± 53 pmol per 10^7 cells per min.
